Results as given in paper PMC12040169 (PLOS Biology, 2025).
In brackets after ≈: the same amount, converted by molar mass.

Key:
in vitro = experiment: in vitro; design: Viability of infected HeLa host cells, resazurin conversion, bulk resorufin fluorescence relative to DMSO; details: human, hela cells; bulk resorufin, mean of 3
[1] = system: T1, CTL2-GFP (C. trachomatis L2/434/Bu, GFP-expressing); experiment: microbe, parasite or virus in culture; design: species or system HeLa; C. trachomatis growth in HeLa, dose-response, mean of bulk GFP fluorescence and imaged total inclusion area; details: Chlamydia trachomatis, 28.5 h; mean of GFP and inclusion area
T1 construct: L2/434/Bu, GFP-expressing
Description: We screened a library of 36,785 small molecules displaying drug-like properties and covering a wide chemical space (Fig 1A and S2A Data). In this process, we also complemented the assay described above with an imaging-based readout (Fig 1B). After measurements of bulk GFP and resorufin fluorescence, cells were fixed, stained with the DNA dye Hoechst, and imaged at a high-content imaging platform to detect chlamydial inclusions (GFP) and host cell nuclei (Hoechst). The total area and number of inclusions in individual wells and the number of nuclei then served as additional proxies for chlamydial growth and host cell viability. […] MICs were calculated as described above.

[2] = system: T1, CTL2-GFP (C. trachomatis L2/434/Bu, GFP-expressing); experiment: microbe, parasite or virus in culture; design: C. trachomatis growth in HeLa, dose-response, mean of bulk GFP fluorescence and imaged total inclusion area; details: Chlamydia trachomatis, HeLa, 28.5 h; mean of GFP and inclusion area
Outline: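 Infected cells treated with library compounds were read for bulk GFP (chlamydial growth) and resorufin fluorescence (host viability), then fixed, Hoechst-stained and imaged. Inclusion area and number from GFP, plus nuclei counts, served as additional growth and viability proxies; MICs derived as previously described.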

SMILES | viability at 28.5 h, 0.000416667 µM (in vitro) | viability at 28.5 h, 0.00125 µM (in vitro) | viability at 28.5 h, 0.00375 µM (in vitro) | viability at 28.5 h, 0.0123333 µM (in vitro) | viability at 28.5 h, 0.037 µM (in vitro) | viability at 28.5 h, 0.111 µM (in vitro) | viability at 28.5 h, 0.333 µM (in vitro) | viability at 28.5 h, 1 µM (in vitro) | viability at 28.5 h, 3 µM (in vitro) | viability at 28.5 h, 10 µM (in vitro) | viability at 28.5 h, 30 µM (in vitro) | MIC [1] | IC50 [2]
COCCNc1nc2c(c(N3CCCCCC3)n1)CCNCC2 [c18e] | 113% | 109% | 109% | 108% | 110% | 106% | 107% | 102% | 108% | 101% | 103% | 1.94 µM (≈ 0.619 µg/mL) | 1.27 µM
CC1=C(C)C(=NNC(N)=S)C(C)=C(C)C1=NNC(N)=S [c19e] | 101% | 103% | 109% | 101% | 101% | 107% | 104% | 103% | 107% | 109% | 114% | 3.58 µM (≈ 1.11 µg/mL) | 1.39 µM
Cc1noc(-c2ccc3c(c2O)OCCO3)c1-c1ccc(Cl)cc1 [c20e] | 99.7% | 97% | 93.1% | 91.8% | 94.3% | 86.5% | 88.7% | 86.1% | 83.4% | 85.9% | 75.6% | 2.69 µM (≈ 0.926 µg/mL) | 1.39 µM
Fc1cccc(F)c1OCCOc1nc(N2CCNCC2)ccc1C(F)(F)F [c21e] | 85.4% | 87.7% | 84% | 87.6% | 84.7% | 89.9% | 90.4% | 93.9% | 87.9% | 91.3% | 0% | 8.28 µM (≈ 3.34 µg/mL) | 1.7 µM
O=[N+]([O-])c1ccc2[nH]c3c(c2c1)CCCC3NC1CCN(CCc2ccccc2)CC1 (centres unmarked) [c23e] | 96.2% | 90.3% | 91.9% | 88% | 86.6% | 87.4% | 90.5% | 83.9% | 93.2% | 76% | 6.18% | 4 µM (≈ 1.68 µg/mL) | 2.18 µM
COc1ccc(C2CC(=O)C=C(Nc3cc(Cl)ccc3O)C2)cc1 (centres unmarked) [c24e] | 94% | 92.4% | 94.1% | 84.9% | 89.8% | 84.5% | 88.6% | 85.7% | 87.6% | 83.7% | 88.4% | 5.71 µM (≈ 1.96 µg/mL) | 2.46 µM
COCC(=O)N[C@H]1C[C@H]2C(=O)Nc3ccc(/C=C/c4ccccc4)cc3C(=O)N2C1 [c25e] | 97.4% | 103% | 99.5% | 105% | 100% | 98.6% | 102% | 106% | 110% | 113% | 113% | 9.14 µM (≈ 3.71 µg/mL) | 2.47 µM
O=C(Nc1ccc(OC(F)(F)F)cc1)Nc1cc(-c2cccs2)n[nH]1 [c26e] | 104% | 100% | 99.3% | 100% | 96.1% | 106% | 106% | 108% | 105% | 103% | 96.4% | 3.98 µM (≈ 1.47 µg/mL) | 2.5 µM
CN(C)c1ccc(Nc2nc(NCCO)c3ccccc3n2)cc1 [c27e] | 93.3% | 89.2% | 89.8% | 89.3% | 93.2% | 89.1% | 95.3% | 89.9% | 103% | 99.4% | 110% | 5.04 µM (≈ 1.63 µg/mL) | 2.54 µM
O=C(Nc1ccccc1N1CCCNCC1)c1ccc2ccccc2c1 [c29e] | 108% | 107% | 108% | 107% | 109% | 116% | 114% | 115% | 111% | 116% | 112% | 5.56 µM (≈ 1.92 µg/mL) | 2.87 µM
CCC1C(c2ccc(C)cc2)=CCC(C(=O)NCCCN(C)C)C1C (centres unmarked) [c30e] | 91.8% | 95.1% | 91.6% | 87.1% | 90.5% | 97.1% | 87.9% | 92.4% | 89.5% | 94.4% | 55.5% | 8.94 µM (≈ 3.06 µg/mL) | 3.07 µM
Fc1cc(Br)c(CNCc2ncc[nH]2)c(N2CCCCC2)c1F [c31e] | 101% | 103% | 98.4% | 96.4% | 92% | 100% | 93.6% | 97.6% | 101% | 97.6% | 102% | 5.18 µM (≈ 1.99 µg/mL) | 3.12 µM
COc1ccc2cc3c(nc2c1)OC(=O)N(CC1CC1)C3 [c32e] | 102% | 94.1% | 91.5% | 92% | 89.7% | 84.5% | 88.5% | 84.9% | 86.8% | 85.1% | 85.4% | 4.53 µM (≈ 1.29 µg/mL) | 3.16 µM
CC(=O)Nc1ccc(-c2cccc(COC3CCN(C(=O)c4ccc(OC(C)C)cc4)CC3)c2)cc1 [c36e] | 89.8% | 85.4% | 90.5% | 89% | 91.7% | 89.4% | 94.8% | 92% | 95.1% | 97.8% | 116% | 8.26 µM (≈ 4.02 µg/mL) | 4.11 µM
CCOc1ccc2nc(NC(=N)N)nc(C)c2c1 [c37e] | 85.5% | 89.1% | 85.5% | 89% | 86.7% | 91.1% | 88.4% | 87.7% | 84.7% | 79% | 55.2% | 11.4 µM (≈ 2.8 µg/mL) | 4.22 µM
Cc1cccc(-c2ccc(CC3(C(N)=O)CCN(C(=O)CCc4ccccc4)CC3)cc2)c1 [c38e] | 101% | 97.3% | 96.8% | 101% | 98.4% | 98.7% | 94.7% | 103% | 99.3% | 104% | 114% | 8.43 µM (≈ 3.71 µg/mL) | 4.84 µM
COc1ccc([C@@H]2CN(C)C[C@H]2NC(=O)Nc2ccc(Cl)c(Cl)c2)cc1OC [c39e] | 93.1% | 88.4% | 92.6% | 90.6% | 94.9% | 83.9% | 87.9% | 84.4% | 86.1% | 84.6% | 81.3% | 5.39 µM (≈ 2.29 µg/mL) | 4.96 µM
